# Experimental data reported in paper PMC10743086, “Immunofluorescence-Based Assay for High-Throughput Analysis of Multidrug Resistance Markers in Non-Small Cell Lung Carcinoma Patient-Derived Cells” (Diagnostics, 2023).
# Tests used:
# Format in all cases: cell-based, human
# [1] = test system: ABCG2 expression in cancer cells (CK8/18+); assay: Immunofluorescence assay of ABCG2 expression in patient-derived NSCLC cultures; conditions: 7 days
# Protocol: (§1) Tissue samples were collected during surgery, and the NSCLC diagnosis, histological grade, stage, necrosis, and lymph node invasion status were determined by histopathological analysis. […] The surgical specimens were placed in a sterile tube containing antibiotic-antimycotic solution (Sigma-Aldrich Chemie GmbH, Taufkirchen, Germany) and immediately transported to the research laboratory for further processing.
# (§2) Upon arrival, the tissue was manually chopped with a surgical blade in a Petri dish under sterile conditions. The samples were cut into 3–5 mm pieces and further dissociated using the Tumor Dissociation Kit (Miltenyi Biotec, Bergisch Gladbach, Germany). The Tumor Dissociation Kit was used to dissociate the cells from the tumor tissue according to the manufacturer’s instructions. The samples were incubated in a 37 °C orbital shaker (KS 4000 ic control, IKA, Königswinter, Germany) at 300 rpm for 90 min. After incubation, the dissociated tissue was placed in DMEM/Ham’s F12 (1:3 ratio) growth medium supplemented with 5% fetal bovine serum (Corning, NY, USA), antibiotic-antimycotic solution, 4 µg/mL hydrocortisone (Sigma-Aldrich Chemie GmbH, Taufkirchen, Germany), 1 µg/mL insulin (Sigma-Aldrich Chemie GmbH, Taufkirchen, Germany), 10 ng/mL epidermal growth factor (BioLegend, San Diego, CA, USA), and 24 µg/mL adenine (Sigma-Aldrich Chemie GmbH, Taufkirchen, Germany). The DMEM and Ham’s F12 growth media were purchased from Sigma-Aldrich Chemie GmbH (Taufkirchen, Germany).
# (§3) The dissociated tissue was cultured in T-25 cell culture flasks until cell attachment was observed before the medium was replaced. If no cell attachment was achieved within 7 days, the sample was discarded. Successful patient-derived cultures were maintained at 37 °C in a humidified atmosphere with 5% CO2 and grown to confluence before undergoing further experiments. […] Partial trypsinization was performed by detaching the fibroblast-like cells with 1 mL of 0.05% trypsin for 1 min at 37 °C, followed by 2 min at room temperature (RT).
# (§4) Vinorelbine and pemetrexed were purchased from Selleckchem (Houston, TX, USA). Carboplatin, cisplatin, docetaxel, etoposide, gemcitabine, gefitinib, and paclitaxel were purchased from Sigma-Aldrich Chemie GmbH (Taufkirchen, Germany). The cisplatin, carboplatin, and gemcitabine were dissolved in sterile water, while the etoposide, docetaxel, vinorelbine, paclitaxel, gefitinib, and pemetrexed were dissolved in DMSO and stored at −20 °C. Before treatment, all the stock solutions were freshly diluted in sterile water.
# (§5) The primary cells were seeded in black, clear bottom 384-well cell culture microplates (Thermo Fisher Scientific, Waltham, MA, USA) in 50 µL of cell growth medium at a density of 1000 cells per well. The compounds were administered 72 h after seeding. The treatment lasted 7 days.
# (§6) The immunofluorescence assay for the quantification of MDR markers was optimized to distinguish cancer cells from stromal cells using a cytokeratin 8/18 (CK8/18) antibody cocktail. The cells were fixed with 4% paraformaldehyde for 20 min at RT and washed three times with PBS using the Wellwash Versa microplate washer (Thermo Fisher Scientific, Waltham, MA, USA). The cells were then blocked with 2% bovine serum albumin (BSA) in PBS for 1 h at RT. […] Co-immunostaining with antibodies against MDR markers was performed to detect the presence of ABCB1, ABCC1, and ABCG2 in both the cancer and stromal cells. […] The secondary antibodies were incubated with the cells at RT for 2 h in the dark. […] Finally, the cells were washed three times with PBS and stored at 4 °C in the dark before imaging.
# [2] = test system: ABCB1 expression in cancer cells (CK8/18+); assay: Immunofluorescence assay of ABCB1 expression in patient-derived NSCLC cultures; conditions: 7 days
# Protocol: as §1, §2, §3, §4, §5, §6
# MRC-5 cells = assay: Cytotoxicity by immunofluorescence cell scoring (cell counts), normal fibroblasts; conditions: 24 h treatment
# Protocol: as §4
# (§7) The compounds were administered 48 h after seeding. The treatment lasted 24 h.
# as §6
# (§8) The fluorescently labeled cells were imaged using the ImageXpress Pico Automated Cell Imaging System (Molecular Devices, San Jose, CA, USA) with a 4x objective after determining the appropriate exposure time for each illumination filter. Analysis of the obtained images was performed using CellReporterXpress software v. 2.8.2.669 (Molecular Devices). The cytotoxicity of the compounds was determined using the Cell Scoring Analysis Protocol. […] Expression of MDR markers was determined using the Multi-Wavelength Cell Scoring Analysis Protocol.
# [3] = test system: Cancer cells (CK8/18+) of patient-derived NSCLC cultures; assay: Cytotoxicity in patient-derived NSCLC cultures, cancer cells; conditions: 7 days treatment
# Protocol: as §1, §2, §3, §4, §5, §6
# NCI-H460 cells = assay: Cytotoxicity by immunofluorescence cell scoring (cell counts), NSCLC cell line; conditions: 24 h treatment
# Protocol: as §4, §7, §6, §8
# [4] = test system: Non-cancer cells (CK8/18-) of patient-derived NSCLC cultures; assay: Cytotoxicity in patient-derived NSCLC cultures, non-cancer cells; conditions: 7 days treatment
# Protocol: as §1, §2, §3, §4, §5, §6
# [5] = test system: ABCB1 expression in NCI-H460 cells; assay: Immunofluorescence assay of MDR marker ABCB1 expression; conditions: five concentrations, 24 h
# Protocol: as §4, §7, §6, §8
# [6] = test system: ABCB1 expression in MRC-5 cells; assay: as above; conditions: five concentrations, 24 h
# Protocol: as §4, §7, §6, §8
# [7] = test system: ABCB1 expression in NCI-H460/R cells; assay: as above; conditions: five concentrations, 24 h
# Protocol: as §4, §7, §6, §8
# [8] = test system: ABCC1 expression in cancer cells (CK8/18+); assay: Immunofluorescence assay of ABCC1 expression in patient-derived NSCLC cultures
# Protocol: as §1, §2, §3, §4, §5, §6
# NCI-H460/R cells = assay: Cytotoxicity by immunofluorescence cell scoring (cell counts), multidrug-resistant NSCLC cell line; conditions: 24 h treatment
# From the text: Human non-small cell lung carcinoma cells (NCI-H460) were purchased from the American Type Culture Collection (Rockville, MD, USA), and normal embryonic lung fibroblasts (MRC-5) were purchased from the European Collection of Authenticated Cell Cultures (Salisbury, UK). Multidrug-resistant NCI-H460/R cells overexpressing ABCB1 were selected from the NCI-H460 cells after selective pressure with doxorubicin [21]. All the cell lines were maintained in MEM medium (Sigma-Aldrich Chemie GmbH, Taufkirchen, Germany) supplemented with 10% FBS, 2 mM L-glutamine, and antibiotic-antimycotic solution. All the cell lines were maintained at 37 °C in a humidified atmosphere with 5% CO2.
# as §4, §7, §6, §8
# [9] = test system: ABCC1 expression in non-cancer cells (CK8/18-); assay: Immunofluorescence assay of ABCC1 expression in patient-derived NSCLC cultures, non-cancer cells; conditions: Table S2
# Protocol: as §1, §2, §3, §4, §5, §6
# [10] = culture TR58, cancer cells (CK8/18+)
# [11] = culture TR64, cancer cells (CK8/18+)
# [12] = culture TR65, cancer cells (CK8/18+)
# [13] = culture TR84, cancer cells (CK8/18+)
# [14] = culture TR87, cancer cells (CK8/18+)
# [15] = MRC-5 (co-culture with NCI-H460)
# [16] = MRC-5 (co-culture with NCI-H460/R)
# [17] = NCI-H460 (co-culture with MRC-5)
# [18] = culture TR58, non-cancer cells (CK8/18-)
# [19] = culture TR64, non-cancer cells (CK8/18-)
# [20] = culture TR65, non-cancer cells (CK8/18-)
# [21] = culture TR84, non-cancer cells (CK8/18-)
# [22] = culture TR87, non-cancer cells (CK8/18-)
# [23] = NCI-H460/R (co-culture with MRC-5)
structure (smiles),measurement,setting,value
N.N.O=C([O-])C1(C(=O)[O-])CCC1.[Pt+2] [Carboplatin],ABCG2 expression,[1]; [10],"increase (An increase in ABCB1, ABCC1, or ABCG2 expression of at least 20% at a minimum of one concentration is shown in the table.)"
same,ABCG2 expression,[1]; [11],"increase (An increase in ABCB1, ABCC1, or ABCG2 expression of at least 20% at a minimum of one concentration is shown in the table.)"
same,ABCG2 expression,[1]; [12],"increase (An increase in ABCB1, ABCC1, or ABCG2 expression of at least 20% at a minimum of one concentration is shown in the table.)"
same,ABCG2 expression,[1]; [13],"increase (An increase in ABCB1, ABCC1, or ABCG2 expression of at least 20% at a minimum of one concentration is shown in the table.)"
same,ABCG2 expression,[1]; [14],"increase (An increase in ABCB1, ABCC1, or ABCG2 expression of at least 20% at a minimum of one concentration is shown in the table.)"
same,ABCB1 Expression,[2]; [10],no change
same,ABCB1 Expression,[2]; [11],"increase (An increase in ABCB1, ABCC1, or ABCG2 expression of at least 20% at a minimum of one concentration is shown in the table.)"
same,ABCB1 Expression,[2]; [12],"increase (An increase in ABCB1, ABCC1, or ABCG2 expression of at least 20% at a minimum of one concentration is shown in the table.)"
same,ABCB1 Expression,[2]; [13],"increase (An increase in ABCB1, ABCC1, or ABCG2 expression of at least 20% at a minimum of one concentration is shown in the table.)"
same,ABCB1 Expression,[2]; [14],"increase (An increase in ABCB1, ABCC1, or ABCG2 expression of at least 20% at a minimum of one concentration is shown in the table.)"
same,IC50,MRC-5 cells; [15],> 100 µM
same,IC50,MRC-5 cells; [16],> 100 µM
same,IC50,MRC-5 cells; MRC-5 monoculture,> 100 µM
same,IC50,[3]; [10],60.8 µM
same,IC50,[3]; [11],39 µM
same,IC50,[3]; [12],22.5 µM
same,IC50,[3]; [13],8.15 µM
same,IC50,[3]; [14],43.3 µM
same,IC50,NCI-H460 cells; [17],> 100 µM
same,IC50,NCI-H460 cells; NCI-H460 monoculture,> 100 µM
same,IC50,[4]; [18],27.3 µM
same,IC50,[4]; [19],12.8 µM
same,IC50,[4]; [20],2.16 µM
same,IC50,[4]; [21],1.28 µM
same,IC50,[4]; [22],22.9 µM
same,ABCB1 Expression,[5]; [17],no change
same,ABCB1 Expression,[5]; NCI-H460 monoculture,no change
same,ABCB1 Expression,[6]; [15],no change
same,ABCB1 Expression,[6]; [16],no change
same,ABCB1 Expression,[6]; MRC-5 monoculture,no change
same,ABCB1 Expression,[7]; [23],no change
same,ABCB1 Expression,[7]; NCI-H460/R monoculture,no change
same,ABCC1 expression,"[8]; culture TR58, cancer cells (CK8/18+), 7 days",no change
same,ABCC1 expression,"[8]; culture TR64, cancer cells (CK8/18+), 7 days","increase (An increase in ABCB1, ABCC1, or ABCG2 expression of at least 20% at a minimum of one concentration is shown in the table.)"
same,ABCC1 expression,"[8]; culture TR65, cancer cells (CK8/18+), 7 days","increase (An increase in ABCB1, ABCC1, or ABCG2 expression of at least 20% at a minimum of one concentration is shown in the table.)"
same,ABCC1 expression,"[8]; culture TR84, cancer cells (CK8/18+), 7 days","increase (An increase in ABCB1, ABCC1, or ABCG2 expression of at least 20% at a minimum of one concentration is shown in the table.)"
same,ABCC1 expression,"[8]; culture TR87, cancer cells (CK8/18+), 7 days","increase (An increase in ABCB1, ABCC1, or ABCG2 expression of at least 20% at a minimum of one concentration is shown in the table.)"
same,IC50,NCI-H460/R cells; [23],> 100 µM
same,IC50,NCI-H460/R cells; NCI-H460/R monoculture,> 100 µM
COc1cc2ncnc(Nc3ccc(F)c(Cl)c3)c2cc1OCCCN1CCOCC1 [gefitinib],ABCC1 expression,[9]; [18],no change
same,ABCC1 expression,[9]; [19],no change
same,ABCC1 expression,[9]; [20],no change
same,ABCC1 expression,[9]; [21],no change
same,ABCC1 expression,[9]; [22],no change
same,ABCC1 expression,"[8]; culture TR58, cancer cells (CK8/18+), Table S2",no change
same,ABCC1 expression,"[8]; culture TR64, cancer cells (CK8/18+), Table S2",no change
same,ABCC1 expression,"[8]; culture TR65, cancer cells (CK8/18+), Table S2",increase (an increase in ABCC1 expression of at least 20% at a minimum of one concentration is shown in the Table.)
same,ABCC1 expression,"[8]; culture TR84, cancer cells (CK8/18+), Table S2",increase (an increase in ABCC1 expression of at least 20% at a minimum of one concentration is shown in the Table.)
same,ABCC1 expression,"[8]; culture TR87, cancer cells (CK8/18+), Table S2",no change
